{"source": "patent US11168302B2", "about": "“Method for differentiation into retinal ganglion cells from stem cells” (ClavisTherapeutics, INC., priority 2014, dated 2021)", "molecules": {"B1": {"name": "Wnt3a: recombinant Wnt3a, Wnt signaling pathway activator (protein, UniProt P56704 19-352, looked up)", "Protein Wnt-3a": "SYPIWWSLAVGPQYSSLGSQPILCASIPGLVPKQLRFCRNYVEIMPSVAEGIKIGIQECQHQFRGRRWNCTTVHDSLAIFGPVLDKATRESAFVHAIASAGVAFAVTRSCAEGTAAICGCSSRHQGSPGKGWKWGGCSEDIEFGGMVSREFADARENRPDARSAMNRHNNEAGRQAIASHMHLKCKCHGLSGSCEVKTCWWSQPDFRAIGDFLKDKYDSASEMVVEKHRESRGWVETLRPRYTYFKVPTERDLVYYEASPNFCEPNPETGSFGTRDRTCNVSSHGIDGCDLLCCGRGHNARAERRREKCRCVFHWCCYVSCQECTRVYDVHTCK"}, "B2": {"name": "Dkkl: Wnt3a antagonist; recombinant Dickkopf-1, Wnt signaling pathway inhibitor (protein, UniProt O94907 32-266, looked up)", "Dickkopf-related protein 1": "TLNSVLNSNAIKNLPPPLGGAAGHPGSAVSAAPGILYPGGNKYQTIDNYQPYPCAEDEECGTDEYCASPTRGGDAGVQICLACRKRRKRCMRHAMCCPGNYCKNGICVSSDQNHFRGEIEETITESFGNDHSTLDGYSRRTTLSSKMYHTKGQEGSVCLRSSDCASGLCCARHFWSKICKPVLKEGQVCTKHRRKGSHGLEIFQRCYCGEGLSCRIQKDHHQASNSSRLHTCQRH"}, "B3": {"name": "Norrin: Wnt signaling pathway activator; binds to Frizzled4 receptor (protein, UniProt Q00604 25-133, looked up)", "Norrin": "KTDSSFIMDSDPRRCMRHHYVDSISHPLYKCSSKMVLLARCEGHCSQASRSEPLVSFSTVLKQPFRSSCHCCRPQTSKLKALRLRCSGGMRLTATYRYILSCHCEECNS"}}, "key": {"[1]": {"system": "outward potassium current", "assay": "Whole-cell patch clamp recording of potassium current in stem cell-derived retinal ganglion cells", "format": "cell-based, human", "details": "Protocol A, 4-AP 1 mM"}, "[2]": {"system": "human embryonic stem cell-derived retinal ganglion cells", "assay": "Differentiation by other Wnt signaling pathway and Shh receptor activators, immunofluorescence of Islet-1 and NF200", "format": "cell-based", "details": "day 39, Protocol A schedule; BIO 2 μM, Norrin 50 ng/mL, purmorphamine 1 μM, RA 500 nM", "procedure": "On day 14 after induction of differentiation, retinal progenitor cells generated in Example 3 were cultured and differentiated into immature retinal ganglion cells for 3 days in a differentiation medium [DMEM/F12 (Invitrogen), 1 mM L-glutamine (Invitrogen), 0.1 mM nonessential amino acids (Invitrogen), 0.1 mM mercaptoethanol (Sigma-Aldrich), 1% B27 supplement (Invitrogen), 1% N2 supplement (Invitrogen), 10 ng/mL Noggin, 10 ng/mL IGF-1, 5 ng/mL FGF2, 50 ng/mL recombinant Wnt3a (R&D Systems)] containing 2 μM BIO (6-bromoindirubin-3′-oxime) or 50 ng/mL Norrin as the Wnt signaling pathway activator instead of 50 ng/mL recombinant Wnt3a. On day 17 after induction of differentiation, immature retinal ganglion cells thus generated were cultured and differentiated into mature retinal ganglion cells for 5 days in a differentiation medium [DMEM/F12 (Invitrogen), 1 mM L-glutamine (Invitrogen), 0.1 mM nonessential amino acids (Invitrogen), 0.1 mM mercaptoethanol (Sigma-Aldrich), 1% B27 supplement (Invitrogen), 1% N2 supplement (Invitrogen), 10 ng/mL IGF-1, 250 ng/mL recombinant Shh (R&D Systems)] containing 1 μM purmorphamine as the Shh receptor activator instead of 250 ng/mL Shh. On day 22 after induction of differentiation, the mature retinal ganglion cells were matured for 39 days using a medium prepared by adding 500 nM retinoic acid (RA) to the above differentiation medium.\nThe immunofluorescence assay of the cells generated by this method was performed using retinal ganglion cell markers, Islet-1 and NF200, and the results were consistent with the results of using Wnt3a and Shh (FIG. 21)."}, "AMPA receptor": {"system": "AMPA receptor", "assay": "Recording of spontaneous excitatory postsynaptic currents (sEPSCs) in stem cell-derived retinal ganglion cells", "format": "cell-based, human", "details": "H9-derived RGCs, CNQX 50 μM"}, "[3]": {"system": "human pluripotent stem cell-derived retinal ganglion cell line", "assay": "Live cell Ca2+ imaging of retinal ganglion cell line", "format": "cell-based", "details": "1 mM glutamate stimulation; Fluo-4; passaged cell line", "procedure": "For calcium imaging, cells cultured on 18 mm coverslip were washed with Tyrode's solution (119 mM NaCl, 2.5 mM KCl, 2 mM CaCl2), 2 mM MgCl2, 25 mM HEPES, 30 mM glucose, pH 7.4) twice or three times, and then cultured at 37° C. with addition of 1 μM Fluo-4-AM (Life technologies, Carlsbad, Calif., USA). After culturing for 15 min, cells were washed with Tyrode's solution for 10 min. Time differential images were obtained by using an Olympus IX-71 inverted microscope (Olympus, Tokyo, Japan) equipped with 40×(1.0 NA) oil lens and EMCCD (iXon887, Andor Technologies, Belfast, Northern Ireland) every 0.5 sec for 30 min. From the 10th image frame, cells were stimulated with 1 mM glutamate. After stimulation, cells were infused with Tyrode's solution."}, "[4]": {"system": "voltage-gated sodium channel", "format": "cell-based, human"}, "retinal ganglion cells": {"system": "retinal ganglion cells", "assay": "Effects of Wnt3a, Shh and RA in Protocol A differentiation, immunofluorescence assay with retinal ganglion cell-specific markers", "format": "cell-based, human", "parameters": "production of retinal ganglion cells: dose or concentration left out as unconfirmed", "details": "day 39", "procedure": "After being blocked for 90 min, the slides in each differentiation step were incubated overnight at 4° C. with antibodies specific to cells of each differentiation step as given in Table 1. Before use, these antibodies were diluted in a PBS solution containing 1% BSA and 0.25% Triton X-100. The cells cultured on the slides in each step were washed three times for 5 min with PBS and incubated at room temperature for 2 hr with species-specific secondary antibody conjugated with Cy3 (1:800, Jackson Immunoresearch Laboratory) or Alexa488 (1:500, Invitrogen) (Table 1). A standard material suitable for the primary and the secondary antibodies was used to examine non-specific staining or interaction between the antibodies. Thereafter, the cells were washed three times for 5 min with PBS, counterstained with DAPI (4′,6-diamidino-2 phenylindole) and mounted in Vectashield (Vector Laboratories), followed by visualization under an epifluorescence microscope (Nikon Eclipse, E800, Tokyo, Japan) and a confocal microscope (Zeiss LSM510, Carl Zeiss, Inc, Thornwood, N.Y., USA). 500 cells were counted from 20 microscopic fields randomly selected at 400 magnification and evaluated for positive responses to each antibody. Positive responses to antibodies were determined after at least three evaluations.\nTo examine effects of each of Wnt3a, Shh and RA used in the Protocol A differentiation method during production of retinal ganglion cells, respective factors were treated according to a differentiation schedule of Protocol A, and on day 39 after induction of differentiation, an immunofluorescence assay was performed using retinal ganglion cell-specific markers (FIG. 22)."}}, "note": "Entries after “also recorded” stand apart in the source; their conditions may differ.", "data": [{"molecule": "Nc1ccncc1", "note": "[4-Aminopyridine, 4-aminopyridine]", "values": [{"measurement": "fast-activating fraction of outward potassium current", "setting": "[1]; H9-derived RGCs, day 59", "result": "blocked"}, {"measurement": "fast-activating fraction of outward potassium current", "setting": "[1]; iPSC-derived RGCs, day 39", "result": "blocked"}]}, {"molecule": "O=C1Nc2cc(Br)ccc2/C1=C1/Nc2ccccc2/C1=N\\O", "note": "[BIO, 6-bromoindirubin-3′-oxime]", "values": [{"measurement": "immunofluorescence staining of Islet-1 and NF200 compared with Wnt3a and Shh", "setting": "[2]", "result": "consistent with the immunofluorescence staining results of Wnt3a and Shh"}]}, {"molecule": "N#Cc1cc2c(cc1[N+](=O)[O-])=NC(=O)C(=O)N=2", "note": "[CNQX, 6-cyano-7-nitroquinoxaline-2,3-dione]", "values": [{"measurement": "appearance of sEPSCs", "setting": "AMPA receptor; Protocol A, day 59", "result": "blocked"}, {"measurement": "appearance of sEPSCs", "setting": "AMPA receptor; Protocol B, day 96", "result": "blocked"}]}, {"molecule": "N[C@@H](CCC(=O)O)C(=O)O", "note": "[glutamate]", "values": [{"measurement": "cytoplasmic calcium level", "setting": "[3]", "result": "considerably increased; also recorded: considerable increase"}]}, {"molecule": "c1ccc2c(Oc3nc(Nc4ccc(N5CCOCC5)cc4)c4ncn(C5CCCCC5)c4n3)cccc2c1", "note": "[purmorphamine]", "values": [{"measurement": "immunofluorescence staining of Islet-1 and NF200 compared with Wnt3a and Shh", "setting": "[2]", "result": "consistent with the immunofluorescence staining results of Wnt3a and Shh"}]}, {"molecule": "NC1=N[C@H](O)[C@H]2[C@H]3O[C@]4(O)O[C@@H]([C@@H](O)[C@@]2(N1)[C@@H]4O)[C@]3(O)CO", "note": "[tetrodotoxin]", "values": [{"measurement": "fast-activating and inactivating inward sodium currents", "setting": "[4]", "result": "completely blocked"}]}, {"molecule": "B1", "values": [{"measurement": "caliber growth and fasciculation of axons (NF200 staining)", "setting": "retinal ganglion cells; Protocol A schedule", "result": "delayed"}, {"measurement": "synaptogenesis and dendritic spine development (TUJ1 staining)", "setting": "retinal ganglion cells; Protocol A schedule", "result": "no synaptogenesis and dendritic spine development"}, {"measurement": "retinal ganglion cells produced", "setting": "retinal ganglion cells; factors treated per Protocol A schedule", "result": "≥ 80", "unit": "%"}]}, {"molecule": "B2", "values": [{"measurement": "production of retinal ganglion cells", "setting": "retinal ganglion cells; instead of Wnt3a days 14 to 17, Shh and RA per schedule", "result": "hardly produced"}]}, {"molecule": "B3", "values": [{"measurement": "immunofluorescence staining of Islet-1 and NF200 compared with Wnt3a and Shh", "setting": "[2]", "result": "consistent with the immunofluorescence staining results of Wnt3a and Shh"}]}]}
